Square brackets hold non-standard residues; d marks the D form. * marks the point of attachment. FITC = O=C1OC2(c3ccc(O)cc3Oc3cc(O)ccc32)c2ccc(NC(=S)*)cc21; Abu(3-Me-diazirin-3-yl) = CC1(CC[C@H](N)C(=O)O)N=N1; Nle = CCCC[C@H](N)C(=O)O; For = O=C*
Key:
[1] = molecular target: T1, FPR1 (FLAG-tagged, transiently transfected HEK293T cells) (Homo sapiens, UniProt P21462); assay: flow cytometry binding to FPR1-transfected HEK293T cells; details: 10 nM; 10 000 cells per sample
T1 construct: host or cells: HEK293T, transient transfection with Turbofect
T1 sequence (P21462 1-350): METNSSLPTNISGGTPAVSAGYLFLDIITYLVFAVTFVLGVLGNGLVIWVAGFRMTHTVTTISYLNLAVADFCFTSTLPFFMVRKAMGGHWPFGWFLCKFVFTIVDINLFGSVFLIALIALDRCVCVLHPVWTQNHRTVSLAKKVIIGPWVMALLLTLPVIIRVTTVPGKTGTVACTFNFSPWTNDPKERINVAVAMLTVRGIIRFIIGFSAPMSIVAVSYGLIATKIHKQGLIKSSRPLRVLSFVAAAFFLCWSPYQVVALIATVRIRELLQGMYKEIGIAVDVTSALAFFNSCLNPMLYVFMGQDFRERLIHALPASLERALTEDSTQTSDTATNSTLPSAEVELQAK
Experimental: Fig. 2 Evaluation of probe-TAMRA as a ligand for FPR1 by flow cytometry. Histograms of FPR1-transfected (+FPR1) or mock-transfected (mock) HEK293T cells incubated with Tracer-FITC (a) or probe-TAMRA (b) each at 10 nM at the indicated wavelengths. 10 000 cells measured per sample. (c) Plot of mean fluorescence intensity determined from flow cytometry analysis following incubation with increasing concentrations of probe-TAMRA with transfected (blue) or mock transfected (grey) cells. Data from 3 biological replicates; error bars represent standard error of the mean. Black curve is subtraction of background binding (grey curve) from blue curve and represents specific binding. (d) Dot plot from incubation of transfected cells with Tracer-FITC alone (cyan), probe-TAMRA alone (blue), or co-incubation of probe and tracer (red). All peptides at 10 nM. (e) Plot of percentage maximum fluorescence at 525 nm (FITC) and 585 nm (TAMRA) wavelengths from a flow cytometry competition experiment in which Tracer-FITC was held constant at a concentration of 10 nM and the concentration of probe-TAMRA increased from 0–200 nM. […]
Transfected cells were washed with PBS and incubated in 1 mL of PBS with EDTA (per well) at 37 °C for 3 min to detach. […] Protein concentration was determined by the DC protein assay (Bio-Rad) using BSA to generate a standard curve. […]

FPR1 [2] = molecular target: FPR1; parameters: method as in 4 sources, ref [17] = [17]; PMID 18312550; doi:10.1111/j.1747-0285.2008.00646.x; Wittelsberger A. Mierke D. F. Rosenblatt M. Mapping ligand-receptor interfaces: approaching the resolution limit of benzophenone-based photoaffinity scanning Chem. Biol. Drug Des. 2008 71 4 380 383 10 ||| ref [20] = [20]; PMID 472759; doi:10.1126/science.472759; Niedel J. E. Kahane I. Receptor-Mediated Internalisation of Fluorescent Chemotactic Peptide by Human Neutrophils Science 1979 205 1412 1414 10.1126/science.472759 472759 ||| ref [21] = [21]; PMID 15209517; doi:10.1021/bi035335i; Waller A. Sutton K. L. Kinzer-Ursem T. L. Absood A. Traynor J. R. Linderman J. J. Omann G. M. Receptor binding kinetics and cellular responses of six N-formyl peptide agonists in human neutrophils Bio ||| ref [30] = [30]; PMID 19006074; doi:10.1002/cyto.a.20670; Strouse J. J. Young S. M. Mitchell H. D. Ye R. D. Prossnitz E. R. Sklar L. A. Edwards B. S. A novel fluorescent cross-reactive formylpeptide receptor/formylpeptide receptor-like 1 hexapeptide ligand C; details: cited from earlier work; for binding to FPR1: ref [20]
[3] = test system: FPR1 (crude membrane fraction of transfected HEK293T cells); assay: gel-based competition of probe-TAMRA labelling in membrane fraction; format: binding; details: 50 nM probe-TAMRA, 30 min on ice, 2% DMSO, 365 nm 30 s, PNGaseF
Experimental: (a) UV-dependent crosslinking analysed by gel and western blot. […] Following cell lysis, samples were separated by SDS-PAGE and analysed by in-gel fluorescence (550 nm emission) and anti-FLAG western blot. Ponceau staining was used to assess protein loading. […] Probes were used at a concentration of 10 nM. Samples were washed twice before analysis and 10,000 cells were measured per sample. […] HEK293T cells transfected with FPR1 or mock transfected were suspended, lysed by sonication and membrane fraction isolated by centrifugation. […] Proteins were deglycosylated with PNGaseF, separated by SDS-PAGE and analysed by in-gel fluorescence (550nm emission). The gel was Coomassie stained to provide evidence of equal protein loading.
(§1) Cells were incubated in a humidified atmosphere at 37 °C containing 5% CO2. HEK293T cells were cultured in Dulbecco’s Modified Eagle Medium (DMEM, Fisher) supplemented with 1% L-glutamine, 10% v/v fetal bovine serum (FBS) and 1% v/v Pen-Strep. Cells were detached using 1  trypsin in PBS.
HEK293T cells were seeded in a 6-well plate (2 × 10^5 cells/well) and incubated at 37 °C overnight. The plasmid containing FPR1 gene (0.7 µg/µL stock) and Turbofect (Fisher) were mixed with DMEM (no FBS) and incubated at room temperature for 15 min (1 µg of plasmid and 3 µL of Turbofect in 100 µL of media per well). The solution was added to the plated cells and incubated at 37 °C overnight. For mock transfection, the plasmid was omitted.
For 10 cm plate transfection for lysate preparation, the following modifications were used: 1.6×10^6 cells were seeded per plate; 8 µg plasmid and 24 µL Turbofect were mixed in 800 µL DMEM.
Transfected cells were washed with PBS and incubated in 1 mL of PBS with EDTA (per well) at 37 °C for 3 min to detach. The cells were then transferred into sterile Eppendorf tubes and centrifuged at 2000 rpm for 3 min at 4 °C to form pellets. Subsequently the cells were incubated with 1 mL of 10 nM probe in PBS at 0 °C for 30 min. […] Protein concentration was determined by the DC protein assay (Bio-Rad) using BSA to generate a standard curve. […]

[4] = test system: FPR1 (FPR1-HEK293T cells); assay: flow cytometry competition of probe-TAMRA with known ligands; format: binding; details: probe-TAMRA 10 nM
Experimental: as §1
HEK293T cells were seeded in a 6-well plate (2 × 10^5 cells/well) and incubated at 37 °C overnight. The plasmid containing FPR1 gene (0.7 µg/µL stock) and Turbofect (Fisher) were mixed with DMEM (no FBS) and incubated at room temperature for 15 min (1 µg of plasmid and 3 µL of Turbofect in 100 µL of media per well). The solution was added to the plated cells and incubated at 37 °C overnight. For mock transfection, the plasmid was omitted. […]
concentrations of 5 µM, 20 µM, 5 µM respectively) or DMSO for 30 min on ice (final DMSO concentration of 2%). […] Membranes were resuspended in 25 µL PBS, irradiated for 30 s at 365 nm, deglycosylated as described in section 2.6, and then analysed by SDS-PAGE.
Crosslinked cell lysate samples were analysed using gel-based fluorescent imaging. […] Fluorescence was measured using a BioRad ChemiDoc MP Imaging System with a Cy3 filter. […]

FPR1 [5] = details: ref [20]; cited from earlier work
Experimental: Upon agonist binding, FPR1 internalises following activation of G protein subunits, resulting in receptor desensitisation.[20] […] Upon heating to 37 °C, fluorescent material was ob ...

[6] = molecular target: T2, Formyl peptide receptor 1, C-terminally FLAG-tagged (UniProt P21462 1-350); assay: flow cytometry on cells; FPR1-transfected or mock-transfected HEK293T cells incubated with the fluorescent peptide (10 nM; probe-TAMRA titrated 0-200 nM); background of mock-transfected cells subtracted; 3 biological replicates; details: one partner purified
T2 construct: Formyl peptide receptor 1 (FPR1); Glycosylated in HEK293T (diffuse band that sharpens with PNGaseF); also called FPR1; FLAG-tagged FPR1; source: HEK293T, transiently transfected; on living cells, in lysate (sonication) or in a crude membrane fraction; not shown: FLAG, C-terminal, kept
T2 sequence (looked up): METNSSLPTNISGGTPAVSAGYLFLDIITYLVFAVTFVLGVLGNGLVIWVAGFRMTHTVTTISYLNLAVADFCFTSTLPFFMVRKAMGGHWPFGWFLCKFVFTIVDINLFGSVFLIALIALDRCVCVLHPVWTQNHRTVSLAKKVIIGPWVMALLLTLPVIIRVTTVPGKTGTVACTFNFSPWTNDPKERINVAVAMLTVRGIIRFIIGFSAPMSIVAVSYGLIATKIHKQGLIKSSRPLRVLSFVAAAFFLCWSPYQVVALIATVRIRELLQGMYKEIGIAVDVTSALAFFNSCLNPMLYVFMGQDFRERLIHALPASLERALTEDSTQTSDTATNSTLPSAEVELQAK

Molecule: For-[Nle]LF[Nle]YK(FITC)-OH [Tracer-FITC]
- fluorescence shift in flow cytometry [1]: clear shift to a population of fluorescent cells with minimal background binding in mock-transfected cells
- Kd (FPR1 [2]; ref [17], read-out: reported KD): ~3 nM
- binding to FPR1 (FPR1 [2]): low nM binding to FPR1

Molecule: Boc-MLF
- inhibition of probe-TAMRA labelling ([3]; 20 μM competitor): incomplete inhibition
- concentration at which competition of probe-TAMRA binding observed [4]: 10 to 50 µM

Molecule: formyl-Nle-Leu-Phe-Nle-Tyr-Lys(TAMRA)-OH [TAMRA version of the tracer]
- internalisation (literature) (FPR1 [5]): receptor internalisation
- binding to FPR1 (FPR1 [2]): low nM binding to FPR1

Molecule: fMLFF
- inhibition of probe-TAMRA labelling ([3]; 5 μM competitor): complete inhibition
- potency as reported (FPR1 [2]; ref [30]): more potent

Molecule: fMLF
- inhibition of probe-TAMRA labelling ([3]; 5 μM competitor): incomplete inhibition
- concentration at which competition of probe-TAMRA binding observed [4]: greater than 5 μM
- KD of tripeptide (reported, words) (FPR1 [2]; ref [21]): nM range

Molecule: For-[Abu(3-Me-diazirin-3-yl)]LF[Nle]YK(5(6)‑TAMRA)-OH [probe-TAMRA]
- Kd [6]: 3.5 ± 0.9 nM
